According to patent US20080176913A1, “TRANSDERMAL COMPOSITIONS OF PRAMIPEXOLE HAVING ENHANCED PERMEATION PROPERTIES” (priority 2006, published 2008):
Structures can show the parent of a compound that is named as a salt. Where two headings read alike, the source gives them in different places.

Key:
[1] = oral administration, daily dose of about 1.5 to 4.5 mg; cited from earlier work

CCCN[C@H]1CCc2nc(N)sc2C1 [pramipexole, (S)-2-amino-4,5,6,7-tetrahydro-6-(propylamino)benzothiazole dihydrochloride monohydrate]
ionization (at pH of about 8.0): about 97% | ionization (at pH of about 10.5): about 33% | bioavailability [1]: 90%
